These results are taken from paper PMC4351682, “Formononetin inhibits enterovirus 71 replication by regulating COX- 2/PGE2 expression” (Virology Journal, 2015).

One data set has as its system EV71 VP1 protein. Put plainly: Immunofluorescence assay of EV71 VP1 protein in SK-N-SH cells. The data set is classed as cell-based, enterovirus 71. The note with it: EV71 SHZH98 160 pfu/well, 24 h treatment. The text has this: Figure 2 The antiviral effect of formononetin and pirodavir against EV71 in SK-N-SH cells. (A) Formononetin and pirodavir reduced the expression of EV71 VP1 protein in SK-N-SH cells by western blot assay. (B) Formononetin and pirodavir reduced the expression of EV71 VP1 protein in SK-N-SH cells by immunofluorescence assay. Cells were examined using a fluorescence microscopy (×100). (C) Formononetin and pirodavir reduced the expression of EV71 VP1 RNA by one-step qRT-PCR assay. *P < 0.001 ^# P < 0.05.
SK-N-SH cells grown on glass coverslips (Thermo) were infected with EV71 (SHZH98) of 160 pfu/well for 2 h. Then, various concentrations of formononetin were supplemented for incubation of another 24 h. After incubation, the culture medium was removed and the cells were washed and fixed. The cells were permeabilized in 0.5% Triton X-100 at room temperature for 15 min and blocked in PBS containing 1% BSA for 60 min at room temperature. Cells were then incubated with an anti-EV71 VP1 antibody (Abnova) at a dilution of 1: 500 for 2 h at room temperature. After washing three times with PBS, the samples were reacted with Alexa Fluor 488-labeled goat anti-mouse secondary antibody (Beyotime Institute of Biotechnology, China) for 1 h at room temperature. After washing with PBS, images were taken using a fluorescence microscope (Olympus, IX71).

Data set [1] concerns EV71 SHZH98 strain. Put plainly: CPE inhibition assay for anti-EV71 in SK-N-SH cells. The data set is classed as cell-based, enterovirus 71. The note with it: Enterovirus A, 48 h. How it is done:
(§1) The anti-EV71 activity of formononetin was assayed by CPE inhibition method. Briefly, cells (3 × 10^4 cells/well) were plated into 96-well culture plates for incubation of 24 h. The medium was then removed and cells were infected with EV71 of 80 pfu/well. Then, various concentrations of formononetin were supplemented for incubation of another 48 h. […] The selectivity index (SI) was calculated as the ratio of TC50/IC50 [19].

In data set [2] the test system is EV71 SHZH98 strain. Put plainly: CPE inhibition assay for anti-EV71 in Vero cells. It is filed as cell-based, enterovirus 71. Conditions: Enterovirus A, 48 h. The method, then:
as §1

For the next data set, the system named is COX-2. Description: Western blot of EV71-induced COX-2 expression in SK-N-SH cells. The data set is classed as cell-based. The note with it: formononetin 14.91 μmol/L, pirodavir 1.08 μmol/L, 24 h. The method, then: Figure 4 Formononetin could inhibit EV71-induced COX-2 expression and PGE 2 production. (A) Formononetin but not pirodavir can reduce the expression of COX-2 induced by EV71 infection. SK-N-SH cells were mock-infected or infected with 480 pfu/well of EV71 (SHZH98) for 2 h. The cells were then treated with formononetin (14.91 μmol/L) and pirodavir (1.08 μmol/L), respectively, for 24 h. The cells were harvested and EV71-VP1 and COX-2 were examined by western blot. (B) Formononetin but not pirodavir can reduce the release of PGE2 stimulated by EV71 infection. SK-N-SH cells were pretreated with formononetin (14.91 μmol/L) or pirodavir (1.08 μmol/L) for 24 h. The cells were infected with 4.8 × 10^5 pfu/well of EV71 (SHZH98). At 24 h p.i., the culture supernatants were harvested for PGE2 release assay. Cells were lysed in the M-PER mammalian protein extraction reagent (Thermo, Rockford, IL) containing halt protease inhibitor single-use cocktail (Thermo). The protein concentration was determined by the BCA reagents (Thermo). About 10 μg proteins were denatured and applied to sodium dodecyl sulfate-polyacrylamide gel electrophoresis (SDS-PAGE). The electrophoresis products were transferred to a polyvinyl idenefluoride (PVDF) film and PVDF membranes were then incubated at room temperature with specific primary antibody. […]
For orientation: Immunoblotting shows a protein as a band on a membrane.

The test system of a further data set is EV71. Put plainly: Antiviral activity against EV71, comparison of pirodavir and pleconaril (data not shown). The data set is classed as cell-based, enterovirus 71.
In a further data set the test system is CVB3 (strain Nancy). Description: CPE inhibition assay for anti-CVBs, CVB3 in Vero cells. The data set is classed as cell-based, coxsackievirus B3. The note with it: Enterovirus B, CVB3, 100 TCID50, Vero cells. How it is done:
(§2) The anti-virus activity of formononetin on CVBs was also assayed by CPE method. Briefly, cells (3 × 10^4 cells/well) were plated into 96-well culture plates for incubation of 24 h. The medium was removed and cells were infected with 100 TCID50 of CVB2, CVB6 or CVB3. Then, various concentrations of formononetin were supplemented for incubation of another 48 h. The IC50 was determined by Reed and Muench method. The SI was calculated as the ratio of TC50/IC50 [19].

A further data set relates to EV71 strain JS-52. Put plainly: CPE inhibition assay, EV71 strain JS-52 in Vero cells. It is filed as cell-based, enterovirus 71. Conditions: Enterovirus A, EV71 JS-52, Vero cells. The method, then: (§3) The anti-EV71 activity of formononetin was assayed by CPE inhibition method. Briefly, cells (3 × 10^4 cells/well) were plated into 96-well culture plates for incubation of 24 h. The medium was then removed and cells were infected with EV71 of 80 pfu/well. Then, various concentrations of formononetin were supplemented for incubation of another 48 h. The IC50 defined as the minimal concentration of inhibitor required to inhibit 50% of CPE was determined by Reed & Muench method. The selectivity index (SI) was calculated as the ratio of TC50/IC50 [19].

The test system of another data set is EV71 strain H. Put plainly: CPE inhibition assay, EV71 strain H in Vero cells. The data set is classed as cell-based, enterovirus 71. The note with it: Enterovirus A. How it is done:
as §3

Another data set deals with Vero cells. Put plainly: Cytotoxicity assay (MTS) in Vero cells. Conditions: 3 days. The data set is classed as cell-based. How it is done:
Cytotoxic effect of formononetin on Vero or SK-N-SH cells was assayed by MTS (promega) assay. Briefly, cells (3 × 10^4 cells/well) were seeded into 96-well culture plates and were incubated overnight. Then, the medium was removed and different concentrations of formononetin were applied in triplicate. After 3 days’ incubation, the cytotoxicity of formononetin was determined by MTS assay. The TC50 was defined as the concentration that inhibits 50% cellular growth in comparison with the controls and the TC0 was defined as the maximal non-toxicity dose.

A further data set has as its system EV71 strain BrCr. Put plainly: CPE inhibition assay, EV71 strain BrCr in Vero cells. It is filed as cell-based, enterovirus 71. The note with it: Enterovirus A. The method, then: as §3
In a further data set the test system is CVB2 (strain Ohio-1). Put plainly: CPE inhibition assay for anti-CVBs, CVB2 in Vero cells. The note with it: Enterovirus B, CVB2, 100 TCID50, Vero cells. The data set is classed as cell-based, coxsackievirus B2. How it is done: as §2
The next data set has as its system CVB6 (strain Schmitt). Description: CPE inhibition assay for anti-CVBs, CVB6 in Vero cells. Conditions: Enterovirus B, CVB6, 100 TCID50, Vero cells. The data set is classed as cell-based, coxsackievirus B6. The method, then:
as §2

As for `CCOC(=O)c1ccc(OCCC2CCN(c3ccc(C)nn3)CC2)cc1` [Pirodavir, reference compound], in the data set on EV71 VP1 protein, the “Expression of EV71 VP1 protein (immunofluorescence assay)” value is listed as “reduced”. The IC50 (usually the concentration that inhibits the measured activity by half) with EV71 SHZH98 strain [1] came out at 0.23 ± 0.04 µM; with EV71 SHZH98 strain [2] it was 0.38 ± 0.08 µM. In addition, in the data set with COX-2, the “EV71-stimulated COX-2 expression” value is recorded as “not”. Moreover, in the data set on EV71, the “Antiviral activity against EV71 compared with pleconaril” value is “better than pleconaril”.
`COc1ccc(-c2coc3cc(O)ccc3c2=O)cc1` [Formononetin]: the IC50 in the data set with CVB3 (strain Nancy) is 2.57 ± 0.87 µM; in the data set on EV71 strain JS-52 it was 17.9 ± 8.51 µM; with EV71 strain H, 11.1 ± 9.23 µM; in the data set with EV71 SHZH98 strain [1], 3.98 ± 0.8 µM; in the data set on EV71 SHZH98 strain [2], 3.45 ± 0.55 µM; in the data set on EV71 strain BrCr it was 6.47 ± 4.4 µM. In addition, the 50% inhibitory concentration (IC50) in the data set on CVB2 (strain Ohio-1) was 9.56 ± 2.23 µM; in the data set with CVB6 (strain Schmitt), 5.33 ± 1.48 µM. The “EV71-stimulated COX-2 expression” value in the data set on COX-2 was “inhibited”. For the same compound, the “TC0 (maximal non-toxicity dose)” value in the data set with Vero cells turned out to be 41.42 ± 0 µmol/L; in the data set on Vero cells (listed as formononetin), 41.42 µmol/L. Also, the “TC50 (50% toxicity concentration)” value worked out at 149.38 ± 12.15 µM in the data set on Vero cells and 149.38 µM in the data set on Vero cells (listed as formononetin).
